Source: ChEMBL document CHEMBL4725232, “Synthesis and biological activity of new bisbenzofuran-imidazolium salts” (Bioorg Med Chem Lett, 2020)

Legend:
Format in all cases: functional, cell-based
[1] = system: SW480; assay: Antiproliferative activity against human SW480 cells by MTS assay
[2] = system: SMMC-7721; assay: Antiproliferative activity against human SMMC7721 by MTS assay
[3] = system: MCF7; assay: Antiproliferative activity against human MCF7 cells by MTS assay
[4] = system: HL-60; assay: Antiproliferative activity against human HL60 cells by MTS assay
[5] = system: A549; assay: Antiproliferative activity against human […] cells by MTS assay

Row | IC50 [1] [µM] | IC50 [2] [µM] | IC50 [3] [µM] | IC50 [4] [µM] | IC50 [5] [µM] | Structure (SMILES)
1 | 0.8 | 6.84 | 1.72 | 2.43 | 7.43 | Cc1n(CC=C(c2cc3ccccc3o2)c2cc3ccccc3o2)c2ccccc2[n+]1CC(=O)c1ccc(Br)cc1
2 | > 20 | > 20 | > 20 | > 20 | > 20 | C(Cn1cnc2ccccc21)=C(c1cc2ccccc2o1)c1cc2ccccc2o1
3 | > 20 | > 20 | > 20 | > 20 | > 20 | Cc1cc2ncn(CC=C(c3cc4ccccc4o3)c3cc4ccccc4o3)c2cc1C
4 | 1.43 | 6.05 | 1.63 | 1.73 | 6.46 | O=C(C[n+]1cn(CC=C(c2cc3ccccc3o2)c2cc3ccccc3o2)c2ccccc21)c1ccc(Br)cc1
5 | 1.48 | 1.67 | 1.23 | 1.41 | 1.96 | Cc1n(CC=C(c2cc3ccccc3o2)c2cc3ccccc3o2)c2ccccc2[n+]1CC(=O)c1ccc(-c2ccccc2)cc1
6 | 6.97 | > 20 | 7.83 | 7.73 | > 20 | O=C(C[n+]1ccn(CC=C(c2cc3ccccc3o2)c2cc3ccccc3o2)c1)c1ccc2ccccc2c1
7 | 1.92 | 3.93 | 1.56 | 1.44 | 6.02 | O=C(C[n+]1cn(CC=C(c2cc3ccccc3o2)c2cc3ccccc3o2)c2ccccc21)c1ccccc1
8 | 2.36 | 5.9 | 2.38 | 3.14 | 5.34 | Cc1cc2c(cc1C)[n+](CC(=O)c1ccc3ccccc3c1)cn2CC=C(c1cc2ccccc2o1)c1cc2ccccc2o1
9 | 1.54 | 1.51 | 0.97 | 1.58 | 1.58 | Cc1n(CC=C(c2cc3ccccc3o2)c2cc3ccccc3o2)c2ccccc2[n+]1CC(=O)c1ccc2ccccc2c1
10 | 1.47 | 1.53 | 1.02 | 1.19 | 2.32 | COc1ccc(C(=O)C[n+]2cn(CC=C(c3cc4ccccc4o3)c3cc4ccccc4o3)c3ccccc32)cc1
11 | 0.88 | 1.38 | 0.64 | 1.11 | 1.47 | COc1ccc(C(=O)C[n+]2c(C)n(CC=C(c3cc4ccccc4o3)c3cc4ccccc4o3)c3ccccc32)cc1
12 | 4.3 | 6.38 | 3.42 | 4.33 | 7.08 | Cc1cc2c(cc1C)[n+](CC(=O)c1ccccc1)cn2CC=C(c1cc2ccccc2o1)c1cc2ccccc2o1
13 | 7.93 | 7.81 | 7.05 | 6.27 | 7.42 | Cc1cc2c(cc1C)[n+](CC(=O)c1ccc(Br)cc1)cn2CC=C(c1cc2ccccc2o1)c1cc2ccccc2o1
14 | 6.42 | 9.04 | 8.67 | 6.93 | 7.68 | Cc1cc2c(cc1C)[n+](CC(=O)c1ccc(-c3ccccc3)cc1)cn2CC=C(c1cc2ccccc2o1)c1cc2ccccc2o1
15 | 6.17 | 7.86 | 7.29 | 8.4 | 8.47 | O=C(C[n+]1ccn(CC=C(c2cc3ccccc3o2)c2cc3ccccc3o2)c1)c1ccc(Br)cc1
16 | 1.77 | 1.46 | 1.44 | 1.63 | 1.54 | O=C(C[n+]1cn(CC=C(c2cc3ccccc3o2)c2cc3ccccc3o2)c2ccccc21)c1ccc2ccccc2c1
17 | 0.79 | 1.34 | 0.8 | 1.08 | 3.5 | Cc1n(CC=C(c2cc3ccccc3o2)c2cc3ccccc3o2)c2ccccc2[n+]1CC(=O)c1ccccc1
18 | > 20 | > 20 | > 20 | > 20 | > 20 | COc1ccc(C(=O)C[n+]2ccn(CC=C(c3cc4ccccc4o3)c3cc4ccccc4o3)c2)cc1
19 | 5.8 | 9.46 | 7.97 | 8 | 8.25 | COc1ccc(C(=O)C[n+]2cn(CC=C(c3cc4ccccc4o3)c3cc4ccccc4o3)c3cc(C)c(C)cc32)cc1
20 | 6.44 | > 20 | 11.2 | 6.95 | > 20 | O=C(C[n+]1ccn(CC=C(c2cc3ccccc3o2)c2cc3ccccc3o2)c1)c1ccccc1
21 | 7.2 | 8.04 | 7.57 | 7.25 | 9.05 | O=C(C[n+]1ccn(CC=C(c2cc3ccccc3o2)c2cc3ccccc3o2)c1)c1ccc(-c2ccccc2)cc1
22 | > 20 | > 20 | > 20 | > 20 | > 20 | C(Cn1ccnc1)=C(c1cc2ccccc2o1)c1cc2ccccc2o1
23 | 5.94 | 6.69 | 2.42 | 5.33 | 7.23 | O=C(C[n+]1cn(CC=C(c2cc3ccccc3o2)c2cc3ccccc3o2)c2ccccc21)c1ccc(-c2ccccc2)cc1
24 | > 20 | > 20 | > 20 | > 20 | > 20 | Cc1nc2ccccc2n1CC=C(c1cc2ccccc2o1)c1cc2ccccc2o1
